≈ marks a conversion by molar mass, not a printed value. Read-outs that look alike come from different tables or passages of the source.

Assay in all cases: antibacterial activity (MIC), standard method of the Japan Society of Chemotherapy
What all share (assay type): cell-based

The test system of one test is PS. aeruginosa, 32121. The method, then:
(§1) The antibacterial activity of each compound of the present invention was measured in accordance with the standard method specified by the Japan Society of Chemotherapy, with the results shown in the following Table 2 as MIC values (μg/ml). In this connection, MIC values of levofloxacin (LVFX) and ciprofloxacin (CPEX) are also shown for the sake of comparison with the MIC values of the compounds of the present invention.

In the next test the test system is S. flexneri, 2A 5503. How it is done:
as §1

The subject of the next test is S. aureus, FDA 209P. How it is done: as §1
For a further test, the system named is S. epidermidis, 56500. The method, then: as §1
For another test, the system named is Ps. aeruginosa, 32104. The method, then: as §1
The subject of the next test is X. maltophilia, IID 1275. The method, then:
as §1

In another test the test system is Str. pneumoniae, J24. How it is done:
as §1

The subject of a further test is E. coli, NIHJ. The method, then:
as §1

The subject of another test is Pr. vulgaris, 08601. How it is done: as §1
Another test concerns E. faecalis, ATCC 19433. The method, then: as §1
Another test has as its system Str. pyogenes, G-36. How it is done: as §1
Another test relates to K. pneumoniae TYPE 1. How it is done:
as §1

The subject of the next test is Ser. marcescens, 10100. The method, then: as §1
A further test concerns S. aureus, 870307. The method, then:
as §1

The mark [1] stands for this setting: Pseudomonas aeruginosa, read-out: MIC.
[2] abbreviates: Shigella flexneri, 2A5503, read-out: MIC.
The mark [3] stands for this setting: Staphylococcus aureus, FDA209P, read-out: MIC.
[4] abbreviates: Staphylococcus epidermidis, read-out: MIC.
Where [5] appears, read: Stenotrophomonas maltophilia, IID1275, read-out: MIC.
Setting [6] is: Streptococcus pneumoniae, read-out: MIC.
Setting [7] is: Escherichia coli, read-out: MIC.
[8] abbreviates: Proteus vulgaris, read-out: MIC.
[9] abbreviates: Enterococcus faecalis, ATCC19433, read-out: MIC.
The mark [10] stands for this setting: Streptococcus pyogenes, G36, read-out: MIC.
[11] abbreviates: Klebsiella pneumoniae, TYPE1, read-out: MIC.
The mark [12] stands for this setting: Serratia marcescens, read-out: MIC.
Where [13] appears, read: Staphylococcus aureus, read-out: MIC.

Broadly, the MIC is the least concentration at which growth counts as inhibited. `C[C@H]1COc2c(N3CCN(C)CC3)c(F)cc3c(=O)c(C(=O)O)cn1c23` [LVFX, levofloxacin, reference compound]: the MIC stood at 0.1 µg/mL (≈ 0.277 µM) with PS. aeruginosa, 32121 (setting [1]); 0.025 µg/mL (≈ 0.0692 µM) in the test on S. flexneri, 2A 5503 (setting [2]); 0.2 µg/mL (≈ 0.553 µM) in the test on S. aureus, FDA 209P (setting [3]); 0.39 µg/mL (≈ 1.08 µM) with S. epidermidis, 56500 (setting [4]); 0.2 µg/mL (≈ 0.553 µM) in the test on Ps. aeruginosa, 32104 (setting [1]); 0.39 µg/mL (≈ 1.08 µM) in the test with X. maltophilia, IID 1275 (setting [5]). For the same compound, the minimum inhibitory concentration (MIC) was 0.78 µg/mL (≈ 2.16 µM) with Str. pneumoniae, J24 (setting [6]); 0.013 µg/mL (≈ 0.036 µM) in the test with E. coli, NIHJ (setting [7]); 0.13 µg/mL (≈ 0.36 µM) in the test with Pr. vulgaris, 08601 (setting [8]); 0.78 µg/mL (≈ 2.16 µM) in the test with E. faecalis, ATCC 19433 (setting [9]); 0.2 µg/mL (≈ 0.553 µM) in the test on Str. pyogenes, G-36 (setting [10]); 0.1 µg/mL (≈ 0.277 µM) in the test with K. pneumoniae TYPE 1 (setting [11]). Also, the MIC was 0.1 µg/mL (≈ 0.277 µM) in the test on Ser. marcescens, 10100 (setting [12]) and greater than 6.25 µg/mL in the test with S. aureus, 870307 (setting [13]).
For the compound `Cc1c(N2CCC(C(N)C3CC3)C2)c(F)c(N)c2c(=O)c(C(=O)O)cn(C3CC3F)c12` (stereo not drawn) [compound 7], the minimum inhibitory concentration (MIC) is 0.025 µg/mL (≈ 0.0578 µM) with PS. aeruginosa, 32121; “≦0.003 μg/ml” against S. flexneri, 2A 5503; “≦0.003 μg/ml” against S. aureus, FDA 209P; “≦0.003 μg/ml” in the test with S. epidermidis, 56500; 0.05 µg/mL (≈ 0.116 µM) against Ps. aeruginosa, 32104; 0.05 µg/mL (≈ 0.116 µM) in the test on X. maltophilia, IID 1275. Also, the MIC entry against Str. pneumoniae, J24 is “≦0.003 μg/ml”; with E. coli, NIHJ, “≦0.003 μg/ml”; against Pr. vulgaris, 08601, 0.013 µg/mL (≈ 0.0301 µM); against E. faecalis, ATCC 19433 it was 0.013 µg/mL (≈ 0.0301 µM); with Str. pyogenes, G-36 it was “≦0.003 μg/ml”; against K. pneumoniae TYPE 1 it was 0.025 µg/mL (≈ 0.0578 µM). Besides, the MIC against Ser. marcescens, 10100 was determined as 0.05 µg/mL (≈ 0.116 µM); in the test with S. aureus, 870307 it was 0.025 µg/mL (≈ 0.0578 µM).
As to `O=C(O)c1cn(C2CC2)c2cc(N3CCNCC3)c(F)cc2c1=O` [CPFX, ciprofloxacin, reference compound], the MIC came to 0.025 µg/mL (≈ 0.0754 µM) in the test on PS. aeruginosa, 32121 (setting [1]); 0.006 µg/mL (≈ 0.0181 µM) in the test on S. flexneri, 2A 5503 (setting [2]); 0.1 µg/mL (≈ 0.302 µM) with S. aureus, FDA 209P (setting [3]); 0.2 µg/mL (≈ 0.604 µM) in the test with S. epidermidis, 56500 (setting [4]); 0.05 µg/mL (≈ 0.151 µM) in the test with Ps. aeruginosa, 32104 (setting [1]); 0.78 µg/mL (≈ 2.35 µM) in the test with X. maltophilia, IID 1275 (setting [5]). Moreover, the MIC in the test with Str. pneumoniae, J24 (setting [6]) is 0.1 µg/mL (≈ 0.302 µM); in the test on E. coli, NIHJ (setting [7]), no more than 0.003 µg/mL; with Pr. vulgaris, 08601 (setting [8]), no more than 0.003 µg/mL; in the test on E. faecalis, ATCC 19433 (setting [9]), 0.78 µg/mL (≈ 2.35 µM); with Str. pyogenes, G-36 (setting [10]), 1.56 µg/mL (≈ 4.71 µM); with K. pneumoniae TYPE 1 (setting [11]), 0.025 µg/mL (≈ 0.0754 µM). Moreover, the MIC turned out to be 0.025 µg/mL (≈ 0.0754 µM) in the test with Ser. marcescens, 10100 (setting [12]) and 3.13 µg/mL (≈ 9.45 µM) in the test on S. aureus, 870307 (setting [13]).
For `COc1c(N2CCC(C(N)C3CC3)C2)ccc2c(=O)c(C(=O)O)cn(C3CC3)c12` (stereo not drawn) [compound 8], the minimum inhibitory concentration (MIC) in the test on PS. aeruginosa, 32121 came out at 0.2 µg/mL (≈ 0.503 µM); with S. flexneri, 2A 5503, 0.1 µg/mL (≈ 0.252 µM); against S. aureus, FDA 209P, 0.006 µg/mL (≈ 0.0151 µM); in the test on S. epidermidis, 56500, 0.025 µg/mL (≈ 0.0629 µM); against Ps. aeruginosa, 32104, 0.39 µg/mL (≈ 0.981 µM); against X. maltophilia, IID 1275 it was 0.2 µg/mL (≈ 0.503 µM). For the same compound, the MIC turned out to be 0.006 µg/mL (≈ 0.0151 µM) in the test with Str. pneumoniae, J24; 0.006 µg/mL (≈ 0.0151 µM) in the test with E. coli, NIHJ; 0.05 µg/mL (≈ 0.126 µM) in the test with Pr. vulgaris, 08601; 0.05 µg/mL (≈ 0.126 µM) in the test with E. faecalis, ATCC 19433; 0.013 µg/mL (≈ 0.0327 µM) in the test with Str. pyogenes, G-36; 0.1 µg/mL (≈ 0.252 µM) in the test on K. pneumoniae TYPE 1. Also, the minimum inhibitory concentration (MIC) with Ser. marcescens, 10100 was 0.2 µg/mL (≈ 0.503 µM); in the test with S. aureus, 870307, 0.2 µg/mL (≈ 0.503 µM).
Take `COc1c(N2CCC(C(N)C3CC3)C2)c(F)cc2c(=O)c(C(=O)O)cn(C3CC3F)c12` (stereo not drawn) [compound 6]: the minimum inhibitory concentration (MIC) is 0.05 µg/mL (≈ 0.115 µM) against PS. aeruginosa, 32121; 0.006 µg/mL (≈ 0.0138 µM) with S. flexneri, 2A 5503; “≦0.003 μg/ml” in the test with S. aureus, FDA 209P; 0.006 µg/mL (≈ 0.0138 µM) against S. epidermidis, 56500; 0.1 µg/mL (≈ 0.231 µM) in the test with Ps. aeruginosa, 32104; 0.2 µg/mL (≈ 0.461 µM) in the test on X. maltophilia, IID 1275. The minimum inhibitory concentration (MIC) entry was “≦0.003 μg/ml” against Str. pneumoniae, J24; “≦0.003 μg/ml” against E. coli, NIHJ; 0.013 µg/mL (≈ 0.03 µM) in the test with Pr. vulgaris, 08601; 0.025 µg/mL (≈ 0.0577 µM) against E. faecalis, ATCC 19433; “≦0.003 μg/ml” with Str. pyogenes, G-36; 0.05 µg/mL (≈ 0.115 µM) with K. pneumoniae TYPE 1. For the same compound, the MIC was 0.1 µg/mL (≈ 0.231 µM) in the test on Ser. marcescens, 10100 and 0.1 µg/mL (≈ 0.231 µM) with S. aureus, 870307.
For the compound `Nc1c(F)c(N2CCC(C(N)C3CC3)C2)c(F)c2c1c(=O)c(C(=O)O)cn2C1CC1F` (stereo not drawn) [compound 5], the MIC was 0.025 µg/mL (≈ 0.0573 µM) with PS. aeruginosa, 32121; “≦0.003 μg/ml” with S. flexneri, 2A 5503; “≦0.003 μg/ml” against S. aureus, FDA 209P; “≦0.003 μg/ml” in the test on S. epidermidis, 56500; 0.05 µg/mL (≈ 0.115 µM) against Ps. aeruginosa, 32104; 0.05 µg/mL (≈ 0.115 µM) against X. maltophilia, IID 1275. Besides, the MIC entry is “≦0.003 μg/ml” against Str. pneumoniae, J24; “≦0.003 μg/ml” against E. coli, NIHJ; 0.013 µg/mL (≈ 0.0298 µM) against Pr. vulgaris, 08601; 0.013 µg/mL (≈ 0.0298 µM) against E. faecalis, ATCC 19433; “≦0.003 μg/ml” in the test with Str. pyogenes, G-36; 0.013 µg/mL (≈ 0.0298 µM) against K. pneumoniae TYPE 1. In addition, the MIC against Ser. marcescens, 10100 came to 0.025 µg/mL (≈ 0.0573 µM); with S. aureus, 870307 it was 0.025 µg/mL (≈ 0.0573 µM).

The values are drawn from patent publication US6573260B1, “Cycloalkyl-substituted aminomethylpyrrolidine derivatives” (Daiichi Pharmaceutical Co., Ltd., priority 1998, dated 2003).
